In patent US6441206B1, “Use of organic acid esters in dietary fat” (Raisio Benecol Ltd., priority 1997, dated 2002):

Legend:
cholesterol absorption [1] = settings: cited from earlier work; for cholesterol absorption lowering effect: molar quantities of the fatty acid esters
[2] = thermal resistance of light spread at 45° C.; assay type: physicochemical; settings: fat component with 5% ester, 45° C. up to 4 hours, mixed after return to room temperature
Experimental: The polarity of the sterol/stanol esters described above is an extremely useful property. It is characteristic of compounds according to the invention, e.g. β-sitosterol dicarboxylic acid hemiesters and citrates that in lipid solutions (e.g. 2.5-5% of the fat component) they promote the mixing of the lipid and the water. […] The prepared light spread also lasted better than the comparative sample when heated to 45° C. for up to 4 hours. By improved thermal resistance is meant that after 2 hours at 45° C., more oil had separated from the comparative sample than from the sterol-containing sample. Over the next 2 hours, the separation of oil from the comparative sample continued. In the sterol-containing spread, however, negative change had ceased.

[3] = solubility in alcohol (ethanol) and lipids; assay type: physicochemical
Source text: According to one preferred embodiment of the invention, β-sitosterols are esterified and sterol esters are hydrogenated to form stanols. […] This achieves the significant advantage that hydrogenation can be carried out at room temperature.
Di-β-sitosteryl citrate is formed in a heterogeneous reaction between citric acid and β-sitosterol, at the same reaction conditions as described in the previous section. The compound is separated from the sterol monocitrate on the basis of solubility, using ethanol extraction. The method is based on the fact that the solubility of sterol monocitrate in ethyl alcohol is ten times that of di-β-sitosteryl citrate.
A minimum of 7 ml of water was azeotropically distilled from the reaction mixture over 7-8 hours; as the conversion approached theoretical, upon cooling no lactic acid or plant sterols were crystallized from the reaction mixture. The cooled reaction mixture was a yellowish, viscose liquid. The toluene was removed from the reaction mixture in a vacuum (29 mmHg) at a temperature of 80-90° C. […] As a whole, the material obtained was useable and contained very little or no free plant sterols and/or lactic acid.

[4] = test system: triglyceride content of liver; settings: cited from earlier work
white male mice = settings: 3.5 g dose per 1 kg live weight; cited from earlier work
[5] = test system: triglyceride content of the blood serum; settings: rats; cited from earlier work
total serum cholesterol = settings: daily supply of plant sterol 2-3 g; cited from earlier work
cholesterol absorption [6] = settings: infusion test; cited from earlier work
blood cholesterol = settings: in vivo; cited from earlier work
[7] = soluble matter in spirit vinegar (10 weight-% acetic acid); assay type: physicochemical; settings: spirit vinegar with 10 weight-% acetic acid; 12 hours standing without stirring
Source text: 6.80 g β-sitosterol citrate from example 12 90.7 g Rajamäki Spirit Vinegar (Primalco Oy, Nurmijärvi), containing 10 weight-% acetic acid.

In the case of CCC(CCC(C)C1CCC2C3CC=C4CC(OC(=O)CCC(=O)O)CCC4(C)C3CCC12C)C(C)C (stereo not drawn) [Example 3, β-sitosterol Hydrogen Succinate], the “lowering of the cholesterol content of blood” value (cholesterol absorption [1]; compared with phytosterol monocarboxyl acid esters) is given as “as effectively as the phytosterol monocarboxyl acid esters” and the “changes in the sample after heating” value [2] is given as “almost reversible”.
For CC[C@H](CC[C@@H](C)[C@H]1CC[C@H]2[C@@H]3CC=C4C[C@@H](OC(=O)C(C)O)CC[C@]4(C)[C@H]3CC[C@]12C)C(C)C (stereo partly drawn) [Example 19, β-sitosterol Lactate], the solubility in alcohol ([3]; in words) was “highly soluble in alcohol” and the “solubility in lipids and ethanol” value ([3]; reaction product, viscose liquid at 60-100° C.) was “soluble in lipids and ethanol”.
In the case of CC(=O)O [acetate], the “cholesterol absorption lowering effect” value (cholesterol absorption [1]) is listed as “equally as effective”.
In the case of CC[C@H](CC[C@@H](C)[C@H]1CC[C@H]2[C@@H]3C[C@@H](OC=O)[C@@]4(O)C[C@@H](OC=O)CC[C@]4(C)[C@H]3CC[C@]12C)C(C)C [sitostane-3β-, 5α-, 6β-triol-3,6-diformiate], the “lowering of triglyceride content of liver” value ([4]; guinea pigs) is given as 54%, the acute toxicity (white male mice) is given as “did not show toxicity” and the “lowering of triglyceride content of the blood serum” value [5] is given as “moderately lower”.
In the case of CC[C@H](CC[C@@H](C)[C@H]1CC[C@H]2[C@@H]3CC[C@H]4C[C@@H](O)CC[C@]4(C)[C@H]3CC[C@]12C)C(C)C [sitostanol], the total serum cholesterol (total serum cholesterol) is given as “decrease in the total serum cholesterol”.
In the case of CC[C@H](CC[C@@H](C)[C@H]1CC[C@H]2[C@@H]3CC[C@H]4C[C@@H](O)CC[C@]4(C)[C@H]3CC[C@]12C)C(C)C [β-sitostanol], the “inhibition of cholesterol absorption” value (cholesterol absorption [6]) is given as 83%.
For CC[C@H](CC[C@@H](C)[C@H]1CC[C@H]2[C@@H]3CC=C4C[C@@H](O)CC[C@]4(C)[C@H]3CC[C@]12C)C(C)C [β-sitosterol], the “response in this test” value ([4]; source material as comparison, which test is meant is not clear) is listed as “did not give a positive response” and the “inhibition of cholesterol absorption” value (cholesterol absorption [6]) is listed as 50%.
For decanoate, the “cholesterol absorption lowering effect” value (cholesterol absorption [1]) is given as “equally as effective”.
For oleate, the “cholesterol absorption lowering effect” value (cholesterol absorption [1]) is given as “equally as effective”.
For “soy sterol-2-carbamate glutaric acid K^+—salt”, the “lowering blood cholesterol concentrations” value (blood cholesterol) is given as “proved to lower blood cholesterol concentrations”.
With β-sitosterol citrate [Example 12] the “amount of the sterol citrate dissolved” value [7] was 0.74%.
